Assay results as given in patent US20060122228A1, “Methods and compositions using immunomodulatory compounds for treatment and management of central nervous system injury” (priority 2004, published 2006).
Several values for one entry are separate records, joined by “and”; a condition that tells them apart may be missing. Equal values may be shown once. Read-outs that look alike come from different tables or passages of the source.

Tests used:
T-cells = assay: Stimulation of T-cell proliferation following primary induction by T-cell receptor (TCR) activation; type: cell-based
TNF-α production [1] = details: LPS-stimulated PBMC, cited from earlier work; for IC50: read-out: IC50 for inhibiting production of TNF-α
IL-2 production = assay: Augmentation of IL-2 production following TCR activation of PBMC; type: cell-based
IL-10 production = assay: LPS-stimulated production of IL-10 by PBMC; type: cell-based
IL-6 production = assay: LPS-stimulated production of IL-6 by PBMC; type: cell-based
IL-1β production = assay: LPS-stimulated production of IL-1β by PBMC; type: cell-based
IFN-γ production = assay: Augmentation of IFN-γ production following TCR activation of T-cells; type: cell-based
TNF-α production [2] = details: LPS-stimulated human whole blood, cited from earlier work; for IC50: read-out: IC50 for inhibiting production of TNF-α
TNF-α production [3] = assay: Inhibition of TNF-α production following LPS-stimulation of human PBMC; type: cell-based
MM.IS cells = assay: Inhibition of proliferation of MM.IS cells; type: cell-based; details: read-out: concentration achieving 50% inhibition of proliferation
Hs Sultan cells = assay: Inhibition of proliferation of Hs Sultan cells; type: cell-based; details: read-out: concentration achieving 50% inhibition of proliferation
[4] = cited from earlier work

Compound | IC50 for inhibiting production of TNF-α (TNF-α production [1]) [µg/mL] | IC50 (TNF-α production [1]) [nM] | IC50 for inhibiting production of TNF-α (TNF-α production [2]) [µg/mL] | IC50 (TNF-α production [2]) [nM] | stability / interconversion in aqueous solvent systems [4] | also measured
Nc1cccc2c1CN(C1CCC(=O)NC1=O)C2=O (stereo not shown) [3-(4-amino-1-oxo-1,3-dihydro-isoindol-2-yl)-piperidine-2,6-dione] | ~0.0259 | ~100 | ~0.1036 | ~480 |  | potency relative to thalidomide in stimulating the proliferation of T-cells (T-cells): 50-100 times; potency relative to thalidomide in augmenting the production of IL-2 (IL-2 production): 50-100 times; effect on production of the anti-inflammatory cytokine IL-10 (IL-10 production): increased production; effect on LPS-stimulated production of IL-6 (IL-6 production): dose-dependent inhibition; effect on LPS-stimulated production of IL-1β (IL-1β production): dose-dependent inhibition; potency relative to thalidomide in augmenting the production of IFN-γ (IFN-γ production): 50-100 times; effect on LPS-stimulated production of TNF-α (TNF-α production [3]): dose-dependent inhibition
Nc1cccc2c1C(=O)N(C1CCC(=O)NC1=O)C2=O (stereo not shown) [4-(amino)-2-(2,6-dioxo(3-piperidyl))-isoindoline-1,3-dione] | ~0.00655 | ~24 | ~0.00683 | ~25 |  | IC50 (MM.IS cells): 0.00273 µg/mL to 0.0273 µg/mL and 10 nM to 100 nM; IC50 (Hs Sultan cells): 0.00273 µg/mL to 0.0273 µg/mL and 10 nM to 100 nM
Nc1cccc2c1CN(C1CCC(=O)NC1=O)C2=O (stereo not shown) [Form A, 3-(4-amino-1-oxo-1,3 dihydro-isoindol-2-yl)-piperidene-2,6-dione] |  |  |  |  |  | thermodynamic stability among polymorphs ([4]; anhydrous polymorphs): most thermodynamically stable anhydrous polymorph
Nc1cccc2c1CN(C1CCC(=O)NC1=O)C2=O (stereo not shown) [Form B, 3-(4-amino-1-oxo-1,3 dihydro-isoindol-2-yl)-piperidene-2,6-dione] |  |  |  |  | converts to Form E | 
Nc1cccc2c1CN(C1CCC(=O)NC1=O)C2=O (stereo not shown) [Form E, 3-(4-amino-1-oxo-1,3 dihydro-isoindol-2-yl)-piperidene-2,6-dione] |  |  |  |  | most stable form | 
O=C1CCC(N2C(=O)c3ccccc3C2=O)C(=O)N1 (stereo not shown) [Thalidomide, thalidomide, reference compound] | ~50.2 | ~194000 |  |  |  | 
